Where two headings read alike, the source gives them in different places.
Assays:
[1] = system: osteoclast precursors (bone marrow hematopoietic cells); assay type: cell-based, SD rats; settings: read-out: IC50 Osteoclastogenesis
[2] = molecular target: T1, Endothelin ETA (Homo sapiens, UniProt P25101); assay type: binding
T1 construct: MDS Pharma services, Taipei, Taiwan (contract assay)
T1 sequence (P25101 21-427): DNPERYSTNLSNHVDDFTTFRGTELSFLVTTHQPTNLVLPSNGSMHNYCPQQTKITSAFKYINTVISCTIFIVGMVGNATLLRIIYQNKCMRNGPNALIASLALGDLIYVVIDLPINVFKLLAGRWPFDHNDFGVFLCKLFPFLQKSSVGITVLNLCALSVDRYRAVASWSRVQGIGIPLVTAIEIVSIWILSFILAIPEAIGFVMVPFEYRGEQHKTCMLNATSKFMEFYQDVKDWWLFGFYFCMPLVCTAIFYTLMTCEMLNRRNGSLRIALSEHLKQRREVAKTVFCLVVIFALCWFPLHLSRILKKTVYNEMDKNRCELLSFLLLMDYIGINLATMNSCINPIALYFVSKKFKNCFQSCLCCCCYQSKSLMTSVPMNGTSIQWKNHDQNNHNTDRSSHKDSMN

[3] = system: osteoarthritis rats; set-up: species or system Sprague-Dawley rats; settings: rat, in vivo
[4] = molecular target: T2, integrin αIIbβ3 (Homo sapiens, UniProt P05106+P08514); assay type: cell-based
T2 construct: host or cells: CHO (CHO-αIIbβ3)

[5] = molecular target: T3, Insulin (Rattus norvegicus, UniProt P15127); assay type: binding
T3 construct: MDS Pharma services, Taipei, Taiwan (contract assay)

[6] = system: ovariectomized (OVX) mice; set-up: species or system ICR mice; settings: mouse, in vivo
[7] = system: Human prostate adenocarcinoma PC-3 cells; set-up: species or system SCID mice; settings: mouse, in vivo
[8] = system: Sodium Channel (Site 2); assay type: binding
[9] = mouse, in vivo
[10] = molecular target: T4, integrin α5β1 (Homo sapiens, UniProt P05556+P08648); assay type: cell-based
T4 construct: Human erythroleukemia K562 cells were purchased from ATCC; host or cells: K562

[11] = system: ovariectomized (OVX) rats; settings: rat, in vivo, po, 1.5 mg/kg
[12] = system: hypoxic-induced angiogenesis; set-up: species or system mice; settings: mouse, in vivo
[13] = molecular target: T5, Calcitonin (Homo sapiens, UniProt P30988); assay type: binding
T5 construct: MDS Pharma services, Taipei, Taiwan (contract assay)
T5 sequence (P30988 25-474): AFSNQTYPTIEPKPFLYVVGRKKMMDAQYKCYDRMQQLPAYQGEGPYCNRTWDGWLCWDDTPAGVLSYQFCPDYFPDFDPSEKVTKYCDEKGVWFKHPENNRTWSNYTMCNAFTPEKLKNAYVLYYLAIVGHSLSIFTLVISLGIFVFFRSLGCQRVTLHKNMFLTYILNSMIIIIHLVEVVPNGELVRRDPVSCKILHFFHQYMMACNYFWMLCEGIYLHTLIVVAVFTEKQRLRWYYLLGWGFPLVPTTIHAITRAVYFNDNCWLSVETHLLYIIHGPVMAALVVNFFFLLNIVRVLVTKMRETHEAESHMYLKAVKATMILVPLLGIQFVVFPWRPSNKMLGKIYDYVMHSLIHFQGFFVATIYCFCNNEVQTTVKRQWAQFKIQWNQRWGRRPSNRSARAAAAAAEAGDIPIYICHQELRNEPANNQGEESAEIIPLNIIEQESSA

[14] = system: osteoarthritic rats; settings: rat, in vivo
[15] = system: osteoarthritic mice; settings: mouse, in vivo
[16] = system: TGF-β; assay type: binding
[17] = molecular target: T6, Endothelin ETB (Homo sapiens, UniProt P24530); assay type: binding
T6 construct: MDS Pharma services, Taipei, Taiwan (contract assay)
T6 sequence (P24530 27-442): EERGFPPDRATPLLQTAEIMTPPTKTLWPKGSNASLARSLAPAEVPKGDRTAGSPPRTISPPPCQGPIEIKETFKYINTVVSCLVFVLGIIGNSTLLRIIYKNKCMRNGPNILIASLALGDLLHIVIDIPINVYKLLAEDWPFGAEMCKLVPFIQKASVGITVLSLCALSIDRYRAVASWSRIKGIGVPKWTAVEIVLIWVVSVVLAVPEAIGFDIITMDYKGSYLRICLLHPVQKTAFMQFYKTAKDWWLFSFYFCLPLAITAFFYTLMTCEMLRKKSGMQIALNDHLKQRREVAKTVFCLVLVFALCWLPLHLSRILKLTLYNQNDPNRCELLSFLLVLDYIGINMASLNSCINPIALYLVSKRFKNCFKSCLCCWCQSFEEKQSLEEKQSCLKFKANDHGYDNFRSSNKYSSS

[18] = mouse, in vivo, iv, 30 mg/kg
[19] = system: VEGF; assay type: binding
[20] = system: TNF; assay type: binding

T4 sequence (P08648 42-894 limits assumed): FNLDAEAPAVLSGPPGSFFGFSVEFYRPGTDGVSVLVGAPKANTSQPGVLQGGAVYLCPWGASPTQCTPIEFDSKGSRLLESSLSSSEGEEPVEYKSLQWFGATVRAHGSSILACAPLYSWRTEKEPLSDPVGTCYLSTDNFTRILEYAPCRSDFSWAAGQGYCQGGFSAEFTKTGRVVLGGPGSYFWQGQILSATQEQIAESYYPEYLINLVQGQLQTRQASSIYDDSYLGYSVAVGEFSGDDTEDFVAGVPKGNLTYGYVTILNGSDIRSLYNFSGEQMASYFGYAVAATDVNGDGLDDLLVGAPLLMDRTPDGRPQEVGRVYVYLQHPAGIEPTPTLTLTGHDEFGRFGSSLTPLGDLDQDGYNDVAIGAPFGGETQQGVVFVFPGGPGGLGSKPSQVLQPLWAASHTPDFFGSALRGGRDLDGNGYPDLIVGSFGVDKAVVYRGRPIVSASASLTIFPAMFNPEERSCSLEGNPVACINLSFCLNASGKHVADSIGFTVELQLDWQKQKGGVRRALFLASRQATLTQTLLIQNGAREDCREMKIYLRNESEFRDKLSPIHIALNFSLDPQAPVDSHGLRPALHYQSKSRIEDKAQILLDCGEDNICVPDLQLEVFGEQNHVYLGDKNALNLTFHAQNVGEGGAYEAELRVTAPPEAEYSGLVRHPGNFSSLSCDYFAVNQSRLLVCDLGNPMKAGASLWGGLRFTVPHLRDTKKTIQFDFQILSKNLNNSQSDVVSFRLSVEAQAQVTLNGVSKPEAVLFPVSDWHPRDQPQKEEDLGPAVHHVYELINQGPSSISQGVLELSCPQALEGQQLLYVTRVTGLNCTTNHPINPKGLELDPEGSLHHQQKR
T4 sequence (P08648 895-1049 partner limits assumed): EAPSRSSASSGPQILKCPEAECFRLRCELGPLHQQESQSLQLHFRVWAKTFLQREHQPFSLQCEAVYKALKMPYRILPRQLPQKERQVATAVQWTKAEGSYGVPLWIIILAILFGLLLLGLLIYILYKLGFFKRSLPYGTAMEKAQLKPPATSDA
T4 sequence (P05556 21-798): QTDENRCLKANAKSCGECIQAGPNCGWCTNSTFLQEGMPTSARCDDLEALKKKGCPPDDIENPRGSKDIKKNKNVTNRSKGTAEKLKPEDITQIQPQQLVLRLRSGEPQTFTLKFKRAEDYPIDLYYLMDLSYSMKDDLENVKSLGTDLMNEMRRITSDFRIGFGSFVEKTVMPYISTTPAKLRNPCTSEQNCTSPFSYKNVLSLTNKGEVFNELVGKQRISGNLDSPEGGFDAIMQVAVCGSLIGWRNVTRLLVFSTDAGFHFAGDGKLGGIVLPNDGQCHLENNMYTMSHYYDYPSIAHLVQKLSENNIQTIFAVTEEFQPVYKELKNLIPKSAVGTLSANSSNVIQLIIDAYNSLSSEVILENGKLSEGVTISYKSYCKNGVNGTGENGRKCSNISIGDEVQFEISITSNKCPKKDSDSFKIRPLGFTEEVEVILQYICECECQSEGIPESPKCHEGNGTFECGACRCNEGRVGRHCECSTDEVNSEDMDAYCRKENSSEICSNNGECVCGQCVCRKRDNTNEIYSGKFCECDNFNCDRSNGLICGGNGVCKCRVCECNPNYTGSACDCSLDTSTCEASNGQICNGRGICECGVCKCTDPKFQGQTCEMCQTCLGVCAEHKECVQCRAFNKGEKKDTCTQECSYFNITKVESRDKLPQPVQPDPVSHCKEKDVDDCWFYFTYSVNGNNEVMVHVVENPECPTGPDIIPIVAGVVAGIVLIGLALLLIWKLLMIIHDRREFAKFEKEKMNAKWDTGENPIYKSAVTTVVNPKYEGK
T3 sequence (P15127 27-1383): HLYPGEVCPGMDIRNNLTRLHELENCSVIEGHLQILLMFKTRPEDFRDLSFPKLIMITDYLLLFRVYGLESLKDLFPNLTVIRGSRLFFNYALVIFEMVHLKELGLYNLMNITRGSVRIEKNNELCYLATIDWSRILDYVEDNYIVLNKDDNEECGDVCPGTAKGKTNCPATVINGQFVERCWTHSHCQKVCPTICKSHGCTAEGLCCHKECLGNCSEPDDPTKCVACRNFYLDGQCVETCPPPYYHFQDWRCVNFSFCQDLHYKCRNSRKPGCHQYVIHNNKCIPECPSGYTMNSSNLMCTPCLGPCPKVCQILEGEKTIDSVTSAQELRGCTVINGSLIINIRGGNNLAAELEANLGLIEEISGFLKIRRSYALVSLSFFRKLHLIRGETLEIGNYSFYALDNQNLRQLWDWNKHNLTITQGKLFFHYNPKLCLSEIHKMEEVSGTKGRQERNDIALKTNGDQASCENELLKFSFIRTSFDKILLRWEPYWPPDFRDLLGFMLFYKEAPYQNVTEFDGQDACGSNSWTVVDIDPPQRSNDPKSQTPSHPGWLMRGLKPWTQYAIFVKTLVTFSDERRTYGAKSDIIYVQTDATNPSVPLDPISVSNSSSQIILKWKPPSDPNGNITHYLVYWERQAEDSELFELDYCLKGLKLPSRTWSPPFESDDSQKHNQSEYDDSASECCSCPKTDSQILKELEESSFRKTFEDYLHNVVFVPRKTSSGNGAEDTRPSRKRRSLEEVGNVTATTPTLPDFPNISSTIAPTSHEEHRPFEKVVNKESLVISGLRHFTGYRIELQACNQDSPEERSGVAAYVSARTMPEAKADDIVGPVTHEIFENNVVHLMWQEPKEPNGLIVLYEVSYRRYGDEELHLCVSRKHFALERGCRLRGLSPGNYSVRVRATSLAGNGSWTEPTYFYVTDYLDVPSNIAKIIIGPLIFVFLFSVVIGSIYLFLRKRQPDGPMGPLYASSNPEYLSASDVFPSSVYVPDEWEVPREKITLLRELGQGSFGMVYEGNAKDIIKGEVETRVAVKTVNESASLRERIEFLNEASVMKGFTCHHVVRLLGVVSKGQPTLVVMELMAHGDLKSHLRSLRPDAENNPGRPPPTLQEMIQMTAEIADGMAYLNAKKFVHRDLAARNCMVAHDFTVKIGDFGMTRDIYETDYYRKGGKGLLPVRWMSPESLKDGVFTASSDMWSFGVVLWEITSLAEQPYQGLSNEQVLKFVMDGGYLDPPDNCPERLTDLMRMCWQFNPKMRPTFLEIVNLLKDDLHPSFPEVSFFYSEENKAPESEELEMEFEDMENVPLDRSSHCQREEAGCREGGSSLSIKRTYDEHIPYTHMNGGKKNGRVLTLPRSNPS

What does the source list for “RD: rhodostomin variant having a RGD motif variant ^48PRLDMP^53, SEQ ID NO: 36”?
IC50 [1]: 3.32 nM; Inhibition, Endothelin ETA [2]: 26%; chondrocyte layer destruction in knee joint [3]: inhibited the chondrocyte layer destruction; increase of IC50 in inhibition of integrin αIIbβ3 as compared to Rho [4]: more than 104 fold; Inhibition, Insulin [5]: −6%; BMC [6]: 0.582 ± 0.009 g; BMD [6]: 0.085 ± 0.002 g/cm^2; C-terminal telopeptide of COL(1)α1 chain [6]: 533 ± 27.4 ng/mL; BMC ([6]; po, 1.5 mg/kg): 0.627 ± 0.008 g; BMD ([6]; po, 1.5 mg/kg): 0.091 ± 0.001 g/cm^2; C-terminal telopeptide of COL(1)α1 chain ([6]; po, 1.5 mg/kg): 391 ± 8.3 ng/mL; PC-3 tumor-induced osteolysis (radiographs) [7]: inhibited osteolysis; inhibition in tumor cell-induced swelling in hind legs [7]: 43.8±4.1%; tumor-induced decrease in body weight [7]: prevented the loss of body weight; tumor-induced increase in C-terminal telopeptides of type-I collagen [7]: inhibited a tumor-induced increase in C-terminal telopeptides; tumor-induced increase in the serum calcium concentration (hypercalcemia) ([7]; 1.5 mg/kg): inhibited a tumor-induced increase in the serum calcium concentration; tumor growth in legs (in words) ([7]; sc, 1.5 mg/kg): inhibited tumor growth; Inhibition, Sodium Channel (Site 2) [8]: 2%; effect on tail bleeding (clotting) time [9]: only slightly affected the clotting time; increase of IC50 in inhibition of integrin α5β1 as compared to Rho [10]: > 10 fold; BMC, Femur [11]: 0.441 ± 0.018 g; BMC, Tibia [11]: 0.299 ± 0.011 g; BMD, Femur [11]: 0.135 ± 0.004 g/cm^2; BMD, Tibia [11]: 0.113 ± 0.009 g/cm^2; Bone length, Femur [11]: 3.71 ± 0.06 mm; Bone length, Tibia [11]: 4.01 ± 0.03 mm; Bone volume [11]: 16.3 ± 2.7 %; Wet weight, Femur [11]: 985.3 ± 9.8 mg; Wet weight, Tibia [11]: 749 ± 20.1 mg; ovariectomy-induced increase in osteoclast activity (serum C-terminal telopeptide of type-I collagen) [11]: reversed the ovariectomy-induced increase in osteoclast activity; reduction of angiogenesis (blood vessel profiles in the inner retina) compared to vehicle ROP group [12]: about 46%; Inhibition, Calcitonin [13]: 4%; osteoarthritis-induced elevation of serum cytokines (c-reactive protein, IL-1β, IL-6) [14]: markedly inhibited the osteoarthritis-induced elevation of cytokines; osteoarthritis-induced elevation of serum cytokines (c-reactive protein, IL-1, IL-6) [15]: markedly inhibited the osteoarthritis-induced elevation of cytokines; Inhibition, TGF-β [16]: 14%; Inhibition, Endothelin ETB [17]: 10%; survival of mice [18]: did not affect the survival of mice; Inhibition, VEGF [19]: −14%; Inhibition, TNF [20]: 4%

Source: patent US8183201B2 (priority 2006, dated 2012)
